Assay results reported in article PMC10504751, “Chalcone/1,3,4-Oxadiazole/Benzimidazole hybrids as novel anti-proliferative agents inducing apoptosis and inhibiting EGFR & BRAFV^600E” (BMC Chemistry, 2023).
Values joined by “and” are separate entries in the source; they are usually repeats but may differ in a detail not shown here. Equal entries are not always repeated.

Columns and labels:
[1] = MTT cell viability assay in normal cells; type: cell-based; details: human, MCF-10A normal mammary epithelial cells
Procedure: To check the safety of prepared compounds and evaluate their selectivity towards tumor cells over normal ones, the toxicity of compounds 7a-x were evaluated by 3-(4,5-Dimethylthiazole-2-yl)-2,5-diphenyltetrazol (MTT) assay on the normal human mammary epithelial cell line (MCF-10 A). The human mammary epithelial cell lines were incubated for four days with a concentration of 50 µM of compounds 7a-x.
MTT assay was done to determine the effect of the synthesized compounds on the viability of mammary epithelial cells (MCF-10 A). Compounds 7a-x were incubated with MCF-10 A cells for 4 days at 50 µM concentration, and the viability of cells was determined. See Appendix A.
MTT assay was carried out to study the effect of compounds on mammary epithelial cells (MCF-10A).^7, ^8 The medium in which cells were propagated contained Dulbecco's modified Eagle's medium (DMEM)/ Ham's F-12 medium (1:1) supplemented with epidermal growth factor (20 ng/mL), hydrocortisone (500 ng/mL), insulin (10 μg/mL), 2 mM glutamine and 10% foetal calf serum. After every 2-3 days, the cells were passaged using trypsin ethylenediamine tetra acetic acid (EDTA). The cells were seeded at a density of 10^4 cells mL^-1 in flat-bottomed culture plates containing 96 wells each. After 24 h, medium was removed from the plates and the compounds in (in 0.1% DMSO) were added (in 200 μL medium to yield a final concentration of 0.1% v/v) to the wells of plates. A single compound was designated with four wells followed by incubation of plates for 96h at 37°C. After incubation, medium was removed completely from the plates followed by addition of MTT (0.4 mg/mL in medium) to each well and subsequent incubation of plates for 3h. MTT (along with the medium) was removed and DMSO (150μL) was added to each well of the culture plates, followed by vortexing and subsequent measurement of absorbance (at 540 nm) using microplate reader.

MCF-7 = test: Propidium iodide anti-proliferative assay; type: cell-based; details: Homo sapiens, MCF7; 48 h incubation; read-out: IC50 ± SEM MCF-7
Procedure: (§1) The propidium iodide (PI) tests^31, 32 were further used for assessment of the IC50 of all synthesized compounds and compared to Doxorubicin as a positive control against four cancer cell lines; pancreatic cancer cell line (Panc-1), epithelial line cancer cell (A-549), breast cancer cell line (MCF-7), and colon cancer cell line (HT-29).
(§2) Using the propidium iodide fluorescence assay with doxorubicin as the reference drug, IC50 of the 24 compounds 7a-x, was carried out according to a previously reported procedure^31, 32 against a panel of four human cancer cell lines; epithelial cancer cell line (A-549), breast cancer cell line (MCF-7), colon cancer cell line (HT-29) and pancreas cancer cell line (Panc-1). Compounds 7a-x were incubated with cancer cells for 2 days at different concentrations. See Appendix A.
(§3) To explore the antiproliferative potential of compounds propidium iodide fluorescence assay was performed using different cell lines (melanoma cancer cell line LOX-IMVI, pancreatic cancer cell line (Panc-1), epithelial line cancer cell (A-549), breast cancer cell line (MCF-7), and colon cancer cell line (HT-29). To calculate the total nuclear DNA, a fluorescent dye (propidium iodide, PI) is used which can attach to the DNA,^9,^10 thus offering a quick and precise technique. PI cannot pass through the cell membrane and its signal intensity can be considered as directly proportional to the quantity of cellular DNA. Cells whose cell membranes are damaged or have changed permeability are counted as dead ones. The assay was performed by seeding the cells of different cancer cell lines at a density of 3000-7500 cells/well (in 200µl medium) in culture plates followed by incubation for 24h at 37 °C in humidified 5% CO2/95% air atmospheric conditions. The medium was removed; the compounds were added to the plates at 10 µM concentrations (in 0.1% DMSO) in triplicates, followed by incubation for 48 h. DMSO (0.1%) was used as control. After incubation, medium was removed followed by the addition of PI (25 µl, 50µg/mL in water/medium) to each well of the plates. At -80 °C, the plates were allowed to freeze for 24 h, followed by thawing at 25 °C. A fluorometer (Polar-Star BMG Tech) was used to record the readings at excitation and emission wavelengths of 530 and 620 nm for each well. The percentage cytotoxicity of compounds was calculated using the following formula:
(§4) Where ATC= Absorbance of treated cells and AC= Absorbance of control. […]

HT-29 = test: Propidium iodide anti-proliferative assay; type: cell-based; details: Homo sapiens, 48 h incubation, read-out: IC50 ± SEM HT-29
Procedure: as §1, §2, §3, §4

A-549 = test: Propidium iodide anti-proliferative assay; type: cell-based; details: Homo sapiens, A549; 48 h incubation; read-out: IC50 ± SEM A-549
Procedure: as §1, §2, §3, §4

Panc-1 = test: Propidium iodide anti-proliferative assay; type: cell-based; details: Homo sapiens, 48 h incubation, read-out: IC50 ± SEM Panc-1
Procedure: as §1, §2, §3, §4

[2] = test system: Panc-1, A-549, MCF-7 and HT-29; test: Propidium iodide anti-proliferative assay, four cell lines together; type: cell-based; details: Homo sapiens; range over Panc-1, A-549, MCF-7, HT-29; read-out: IC50 range on the four tested cell lines
Procedure: as §1, §2
as §3, with “The medium was removed; the compounds were added to the plates at 10 µM concentrations (in 0.1% DMSO) in triplicates, followed by incubation for 48 h. DMSO (0.1%) was used as control. After incubation, medium was removed followed by the addition of PI (25 µl, 50µg/mL in water/medium) to each well of the plates. At -80 °C, the plates were allowed to freeze for 24 h, followed by thawing at 25 °C.” left out
as §4

[3] = test system: Caspase-9 in MCF-7 breast cancer cells; test: Caspase-9 assay; type: cell-based, human
Bcl-2 in MCF-7 = test: Bcl-2 inhibition assay
Procedure: All reagents were thoroughly mixed without foaming before use. The microwells were washed twice with approximately 300 µL Wash Buffer per well with the thorough aspiration of microwell contents between washes. Care was taken not to scratch the surface of the microwells. After the last wash, the wells were emptied and microwell strips were tapped on an absorbent pad or paper towel to remove excess Wash Buffer. The microwell strips were used immediately after washing or placed upside down on a wet absorbent paper for not longer than 15 min. Wells were not allowed to dry. A total of 100 µL of Sample Diluent was added in duplicate to all standard wells and the blank wells. Standard (1:2 dilution) in duplicate was prepared ranging from 32 to 0.5 ng/mL. A total of 100 µL of Sample Diluent, in duplicate, was added to the blank wells. A total of 80 µL of Sample Diluent, in duplicate, was added to the sample wells. A total of 20 µL of each sample, in duplicate, was added to the designated wells. A total of 50 µL of diluted biotin was added, conjugated to all wells, including the blank wells. It was covered with a plate cover and incubated at room temperature on a microplate shaker at 100 rpm for 2 h. The plate cover was removed and the wells were emptied. Microwell strips were washed times as described in Step 2. A total of 100 µL of diluted Streptavidin-HRP was added to all wells, including the blank wells. It was covered with a plate cover and incubated at room temperature on a microplate shaker at 100 rpm for 1 h. The plate cover was removed and the wells were emptied. Microwell strips were washed three times, as described in Step 2. A total of 100 µL of mixed TMB Substrate Solution was pipetted into all wells, including the blanks. The microwell strips were incubated at room temperature (18 ◦C to 25 ◦C) for about 15 min, on a rotator set at 100 rpm. Direct exposure to intense light was avoided. The point at which the substrate reaction is stopped was determined by the ELISA reader. Many ELISA readers record absorbance only up to 2.0 O.D. Therefore, the color development within individual microwells was watched by the person running the assay, and the substrate reaction was stopped before positive wells were no longer properly detectable. The enzyme reaction was stopped by quickly pipetting 100 µL of Stop Solution into each well, including the blank wells. It was important that the Stop Solution was spread quickly and uniformly throughout the microwells to inactivate the enzyme completely. Results were read immediately after the Stop Solution was added or within one hour if the microwell strips were stored at 2–8 ◦C in the dark. The absorbance of each microwell was read on a spectrophotometer using 450 nm as the primary wavelength.

BAX in MCF-7 = test: BAX activation assay
Procedure: All reagents were brought to room temperature for at least 30 min before opening (except the human BAX-α Standard). Human BAX-α Standard solution was not be left at room temperature for more than 10 min. Duplicates of all standards, controls, and samples were run. The Assay Layout Sheet was used to determine the number of wells to be used, and any remaining wells were put with the desiccant back into the pouch, and the ziplock was sealed. Unused wells were stored at 4 ◦C. A total of 100 µL of Assay Buffer was pipetted into the S0 (0 pg/mL standard) wells. A total of 100 µL of Standards #1 through #6 was pipetted into the appropriate wells. A total of 100 µL of the samples was pipetted into the appropriate wells. The plate was gently tapped to mix the contents. The plate was sealed and incubated at room temperature on a plate shaker for 1 h at ~500 rpm. The contents of the wells were emptied and washed by adding 400 µL of wash solution to every well. The wash was repeated four more times for a total of five washes. After the final wash, the wells were emptied or aspirated and firmly the plate on a lint-free paper towel was tapped to remove any remaining wash buffer. A total of 100 µL of yellow antibody was pipetted into each well, except the Blank. The plate was sealed and incubated at room temperature on a plate shaker for 1 h at ~500 rpm. The contents of the wells were emptied and washed by adding 400 µL of wash solution to every well. The wash was repeated four more times for a total of five washes. After the final wash, the wells were emptied or aspirated, and the plate was firmly tapped on a lint-free paper towel to remove any remaining wash buffer. A total of 100 µL of blue Conjugate was added to each well, except the Blank. The plate was sealed and incubated at room temperature on a plate shaker for 30 min at ~500 rpm. The contents of the wells were emptied and washed by adding 400 µL of wash solution to every well. The wash was repeated four more times for a total of five washes. After the final wash, the wells were emptied or aspirated and the plate was firmly tapped on a lint-free paper towel to remove any remaining wash buffer. A total of 100 µL of Substrate Solution was pipetted into each well. It was incubated for 30 min at room temperature on a plate shaker at ~500 rpm. A total of 100 µL Stop Solution was pipetted into to each well. The plate reader was blanked against the Blank wells, and the optical density was read at 450 nm. The average net optical density (OD) bound for each standard and sample was calculated by subtracting the average Blank OD from the average OD for each standard and sample. Using linear graph paper, the Average Net OD for each standard versus BAX concentration in each standard were plotted. A straight line was approximated through the points. The concentration of BAX in the unknowns could be determined by interpolation.

[4] = test system: Caspase-8 in MCF-7 breast cancer cells; test: Caspase-8 assay; type: cell-based, human
[5] = test system: Cytochrome C in MCF-7 human breast cancer cell line; test: Cytochrome C assay; type: cell-based
[6] = test system: Caspase-3 in MCF-7 breast cancer cells; test: Caspase-3 assay
Procedure: All reagents were allowed to reach room temperature before use. All liquid reagents were gently mixed before use. The number of 8-well strips needed for the assay was determined. These were inserted into the frame(s) for current use. A total of 100 µL of the Standard Diluent Buffer was added to the zero standard wells. Well(s) reserved for chromogen blank were left empty. A total of 100 µL of standards and controls or diluted samples was added to the appropriate microtiter wells. The sample dilution chosen was optimized for each experimental system. The side of the plate was gently tapped on to
mix. Wells were covered with a plate cover and incubated for 2 h at room temperature. The solution was thoroughly aspirated or decanted from the wells and the liquid was discarded; wells were washed four times. […] The side of the plate was gently tapped on to mix. The plate was covered with a plate cover and incubated for 1h at room temperature. The solution was thoroughly aspirated or decanted from wells and the liquid was discarded; wells were washed four times. A total of 100 µL Anti-Rabbit IgG HRP Working Solution was added to each well except the chromogen blank(s). The working dilution was prepared as described in Preparing IgG HRP. Wells were covered with the plate cover and incubated for 30 min at room temperature. The solution was thoroughly aspirated or decanted from the wells and the liquid was discarded. Wells were washed four times. A total of 100 µL of Stabilized Chromogen was added to each well. The liquid in the wells began to turn blue. It was incubated for 30 min at room temperature and in the dark. The incubation time for chromogen substrate was determined by the microtiter plate reader used. Many plate readers have the capacity to record a maximum optical density (O.D.) of 2.0. The O.D. values were monitored, and the substrate reaction was stopped before the O.D. of the positive wells exceeds the limits of the instrument. The O.D. values at 450 nm could only be read after the Stop Solution had been added to each well. A total of 100 µL of Stop Solution was added to each well. The side of the plate was gently tapped to mix. The solution in the wells changed from blue to yellow. The absorbance of each well was read at 450 nm, having blanked the plate reader against a chromogen blank composed of 100 µL each of Stabilized Chromogen and Stop Solution. The plate was read within 2 h after adding the Stop Solution. A curve fitting software was used to generate the standard curve.
The concentrations for unknown samples and controls from the standard curve were read. Value(s) obtained for sample(s) by the appropriate dilution factor were multiplied to correct for the dilution in step 3.

COc1ccc(/C=C/C(=O)c2ccc(NC(=O)CSc3nnc(-c4ccc5[nH]c(-c6ccc(OC)c(OC)c6)nc5c4)o3)cc2)cc1OC [Compound 7s, 2-{5-[2-(3,4-Dimethoxyphenyl)-1 H-benzo[d]imidazol-5-yl]-1,3,4-oxadiazol-2-ylthio}-N-{4-[(E)-3-(3,4-dimethoxyphenyl)acryloyl]phenyl}acetamide]
melting point: 190 to 193 °C | viability at 96 h, 50 µM [1]: 87% | IC50 (MCF-7): 3.15 ± 0.5 µM | IC50 (HT-29): 4.55 ± 0.6 µM | IC50 (A-549): 3.8 ± 0.6 µM | IC50 (Panc-1): 4.3 ± 0.6 µM

COc1ccc(-c2nc3cc(-c4nnc(SCC(=O)Nc5ccc(C(=O)/C=C/c6cc(OC)c(OC)c(OC)c6)cc5)o4)ccc3[nH]2)cc1OC [Compound 7t, 2-{5-[2-(3,4-Dimethoxyphenyl)-1 H-benzo[d]imidazol-5-yl]-1,3,4-oxadiazol-2-ylthio}-N-{4-[(E)-3-(3,4,5-trimethoxyphenyl)acryloyl]phenyl}acetamide]
melting point: 190 to 193 °C | viability at 96 h, 50 µM [1]: 88% | IC50 (MCF-7): 10.1 ± 1 µM | IC50 (HT-29): 10.8 ± 1.2 µM | IC50 (A-549): 10.6 ± 1.1 µM | IC50 (Panc-1): 10.9 ± 1.2 µM

COc1ccc(/C=C/C(=O)c2ccc(NC(=O)CSc3nnc(-c4ccc5[nH]c(-c6ccc(Cl)cc6)nc5c4)o3)cc2)cc1OC [Compound 7i, 2-{5-[2-(4-Chlorophenyl)-1 H-benzo[d]imidazol-5-yl]-1,3,4-oxadiazol-2-ylthio}-N-{4-[(E)-3-(3,4-dimethoxyphenyl)acryloyl]phenyl}acetamide]
melting point: 208 to 210 °C | viability at 96 h, 50 µM [1]: 84% | IC50 (MCF-7): 9.2 ± 1 µM | IC50 (HT-29): 10.2 ± 1.3 µM | IC50 (A-549): 9.7 ± 1.1 µM | IC50 (Panc-1): 10.2 ± 1.2 µM

COc1cccc2c1C(=O)c1c(O)c3c(c(O)c1C2=O)C[C@@](O)(C(=O)CO)C[C@@H]3O[C@H]1C[C@H](N)[C@H](O)[C@H](C)O1 [Doxorubicin, reference compound]
IC50 [2]: 0.9 to 1.41 µM | Caspase-9 Fold change ([3]; MCF-7, vs untreated control): 17.40 fold | Caspase-9 Conc ([3]; MCF-7 breast cancer cells): 16.200 ng/mL | Bcl-2 Conc (Bcl-2 in MCF-7; MCF-7): 0.98 ng/mL and 0.985 ng/mL | Bcl-2 Fold reduction (Bcl-2 in MCF-7; MCF-7, vs untreated control): 5.1 fold | BAX Conc (BAX in MCF-7; MCF-7): 276 pg/mL and 276.500 pg/mL | BAX Fold change (BAX in MCF-7; MCF-7, vs untreated control): 32.5 fold | Caspase-8 Fold change ([4]; MCF-7, vs untreated control): 10.00 fold | Caspase-8 Conc ([4]; MCF-7 breast cancer cells): 1.750 ng/mL | Cytochrome C Fold change ([5]; MCF-7, vs untreated control): 13.10 fold | Cytochrome C Conc ([5]; MCF-7 breast cancer cells): 0.604 ng/mL | IC50 (MCF-7): 0.9 ± 0.1 µM | IC50 (HT-29): 1.01 ± 0.1 µM | IC50 (A-549): 1.21 ± 0.1 µM | IC50 (Panc-1): 1.41 ± 0.1 µM | Caspase-3 Fold change ([6]; MCF-7, vs untreated control): 7.65 fold | Caspase-3 Conc ([6]; MCF-7 breast cancer cells): 503.200 ± 4.20 pg/mL

COc1ccc(/C=C/C(=O)c2ccc(NC(=O)CSc3nnc(-c4ccc5[nH]c(-c6cc(OC)c(OC)c(OC)c6)nc5c4)o3)cc2)cc1 [Compound 7w, 2-{5-[2-(3,4,5-Trimethoxyphenyl)-1 H-benzo[d]imidazol-5-yl]-1,3,4-oxadiazol-2-ylthio}-N-{4-[(E)-3-(4-methoxyphenyl)acryloyl]phenyl}acetamide]
melting point: 200 to 204 °C | viability at 96 h, 50 µM [1]: 91% | IC50 (MCF-7): 10.2 ± 1.2 µM | IC50 (HT-29): 11.2 ± 1.3 µM | IC50 (A-549): 10.9 ± 1.1 µM | IC50 (Panc-1): 11.2 ± 1.2 µM

COc1ccc(/C=C/C(=O)c2ccc(NC(=O)CSc3nnc(-c4ccc5[nH]c(-c6cc(OC)c(OC)c(OC)c6)nc5c4)o3)cc2)cc1OC [Compound 7x, 2-{5-[2-(3,4,5-Trimethoxyphenyl)-1 H-benzo[d]imidazol-5-yl]-1,3,4-oxadiazol-2-ylthio}-N-{4-[(E)-3-(3,4-dimethoxyphenyl)acryloyl]phenyl}acetamide]
melting point: 212 to 215 °C | viability at 96 h, 50 µM [1]: 85% | IC50 (MCF-7): 10.8 ± 1.1 µM | IC50 (HT-29): 12.5 ± 1.5 µM | IC50 (A-549): 11.5 ± 1.2 µM | IC50 (Panc-1): 11.8 ± 1.2 µM

COc1cc(/C=C/C(=O)c2ccc(NC(=O)CSc3nnc(-c4ccc5[nH]c(-c6ccc(Cl)cc6)nc5c4)o3)cc2)cc(OC)c1OC [Compound 7j, 2-{5-[2-(4-Chlorophenyl)-1 H-benzo[d]imidazol-5-yl]-1,3,4-oxadiazol-2-ylthio}-N-{4-[(E)-3-(3,4,5-trimethoxyphenyl)acryloyl]phenyl}acetamide]
melting point: 223 to 225 °C | viability at 96 h, 50 µM [1]: 89% | IC50 (MCF-7): 9.4 ± 1.2 µM | IC50 (HT-29): 10.7 ± 1.1 µM | IC50 (A-549): 9.95 ± 1.1 µM | IC50 (Panc-1): 10.3 ± 1.2 µM
